Data: US10253039B2, “Inhibitors of bacterial DNA gyrase with efficacy against gram-negative bacteria” (priority 2014, dated 2019)
Values after ≈ are worked out from the molar mass of the structure shown.

What was measured:
[1] = tested on: wild-type E. coli; assay: Killing / inhibition of wild-type E. coli; assay type: cell-based, Escherichia coli
Description: The compounds of the invention are observed to inhibit wild-type E. coli.

[2] = biological target: T1, GyrBAfus:20-20 bp DNA complex (Staphylococcus aureus, UniProt P0A0K8+P20831); assay: 1H NMR binding study, titration; settings: titrating 1:1 GyrBAfus:20-20 bp DNA into 50 μM compound
T1 construct: The C-terminal end of the B subunit was connected to the N-terminal end of the A subunit
T1 sequence (P0A0K8 410-543): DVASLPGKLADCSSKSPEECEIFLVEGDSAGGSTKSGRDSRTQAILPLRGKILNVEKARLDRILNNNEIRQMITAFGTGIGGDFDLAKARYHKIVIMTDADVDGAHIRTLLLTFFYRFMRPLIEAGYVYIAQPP
T1 sequence (P0A0K8 580-644): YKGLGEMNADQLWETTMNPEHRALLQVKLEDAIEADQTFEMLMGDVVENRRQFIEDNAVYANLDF
T1 sequence (P20831 2-491): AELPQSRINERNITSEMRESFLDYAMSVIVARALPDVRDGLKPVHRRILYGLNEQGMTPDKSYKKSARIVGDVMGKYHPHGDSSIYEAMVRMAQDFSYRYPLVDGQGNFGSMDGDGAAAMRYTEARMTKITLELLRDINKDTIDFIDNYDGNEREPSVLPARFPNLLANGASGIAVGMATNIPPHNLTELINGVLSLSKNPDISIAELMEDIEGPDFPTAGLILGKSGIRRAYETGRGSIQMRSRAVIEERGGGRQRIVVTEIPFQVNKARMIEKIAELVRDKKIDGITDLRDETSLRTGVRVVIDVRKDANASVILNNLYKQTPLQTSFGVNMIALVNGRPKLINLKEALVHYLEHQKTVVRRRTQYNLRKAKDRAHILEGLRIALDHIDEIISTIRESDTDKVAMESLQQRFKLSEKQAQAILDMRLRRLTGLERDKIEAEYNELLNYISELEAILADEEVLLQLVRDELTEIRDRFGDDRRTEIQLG

[3] = tested on: E. coli BW25113 ΔtolC cipR isolate GyrA Asp87Tyr; assay: MIC against ciprofloxacin-resistant mutant; settings: Escherichia coli, BW25113
Description: (§1) A microdilution method in 96-well plates was used and the MIC protocol established by the Clinical Laboratory Standards Institute was followed. From a growing subculture, a 1:10000 inoculum of each strain in Luria-Bertani media was prepared and aliquoted 100 μL in 4 columns of wells, except for the top row wells, which contained 200 μL of inoculum. […] The liquid in each of wells was mixed with a multi-channel pipet and 100 μL was transferred to the next well and mixed. The 2-fold dilution was continued down the 96-well plate until 100 μL was left, which was discarded. The plates were incubated at 37° C. with shaking for 16-18 hours. The MIC was determined as the lowest concentration that inhibited growth and had no turbidity by visual inspection.

[4] = tested on: Klebsiella pneumonia; assay: MIC, microdilution in 96-well plates; settings: Klebsiella pneumoniae
[5] = tested on: Vibrio cholera; assay: MIC, microdilution in 96-well plates; settings: Vibrio cholerae
[6] = tested on: E. coli BW25113 ΔtolC cipR isolate GyrB Ser464Phe; assay: MIC against ciprofloxacin-resistant mutant; settings: Escherichia coli, BW25113
Description: as §1

[7] = tested on: E. coli BW25113 ΔtolC gyrR isolate GyrA Phe96Leu; assay: MIC against gyramide-resistant mutant; settings: Escherichia coli, BW25113
Description: as §1

[8] = tested on: E. coli BW25113 ΔtolC; assay: MIC, microdilution in 96-well plates; settings: Escherichia coli
[9] = tested on: mutant E. coli (with a drug pump knock out); assay: Killing of mutant E. coli; assay type: cell-based, Escherichia coli
[10] = tested on: E. coli BW25113 ΔtolC gyrR isolate GyrA Ser97Pro; assay: MIC against gyramide-resistant mutant; settings: Escherichia coli, BW25113
Description: as §1

[11] = tested on: Salmonella typhimurium; assay: MIC, microdilution in 96-well plates; settings: Salmonella enterica

SMILES: N#Cc1cccc(S(=O)(=O)N[C@@H]2CCN(Cc3ccc(-c4ccccc4)cc3)C2)c1 [Gyramide C2, gyramide C2]
- concentration observed to kill wild-type E. coli [1]: 20 µM
- Kd for the association [2]: < 50 µM
- MIC [3]: 0.8 µM (≈ 0.334 µg/mL)
- MIC ([4]; with PAβN (60 μM)): 20 µM (≈ 8.35 µg/mL)
- MIC ([4]; without PAβN): > 640 µM
- MIC ([5]; with PAβN (60 μM)): 40 µM (≈ 16.7 µg/mL)
- MIC ([5]; without PAβN): 160 µM (≈ 66.8 µg/mL)
- MIC [6]: 0.4 µM (≈ 0.167 µg/mL)
- MIC [7]: 25.6 µM (≈ 10.7 µg/mL)
- MIC ([8]; BW25113, E. coli BW25113 ΔtolC (parent strain), Table 4): 0.1 µM (≈ 0.0418 µg/mL)
- MIC ([8]; BW25113, E. coli BW25113 ΔtolC (parent strain), Table 5): 0.1 µM (≈ 0.0418 µg/mL)
- MIC ([8]; BW25113, E. coli BW25113 ΔtolC, without PAβN, Table 3): 0.25 µM (≈ 0.104 µg/mL)
- concentration observed to kill mutant E. coli [9]: 300 nM
- MIC [10]: > 25.6 µM
- MIC ([11]; with PAβN (60 μM)): 2.5 µM (≈ 1.04 µg/mL)
- MIC ([11]; without PAβN): > 640 µM
